How the values were obtained:
[1] = Body weight of hamsters, LUM001 for 28 days; format: in vivo, golden Syrian hamsters; settings: n=10
Procedure: Male golden Syrian hamsters (126-147 gm) were obtained from Charles Rivers Laboratories and were single housed in a constant temperature environment with alternating 12-hour light and dark cycles. Hamsters were fed Teklad 7001 rodent meal chow at libitum for two weeks before the experimental studies began and switched to Teklad 7001 rodent meal chow supplemented with 0.24% cholesterol on day one of the 28-day experiment. LUM001 was dissolved in an aqueous solution of 0.2% (w/v) Tween 80 and administered Q.D. by intragastric gavage between 9 a.m. and 10 a.m. each morning using a syringe fitted with a flexible feeding tube. Blood samples were collected after 14- and 28-day treatment periods by orbital sinus and cardiac puncture, respectively. Hamsters were anesthetized but not fasted prior to blood collections. Fecal samples were collected during a 48-hour period at the end of days 14 and 28 (i.e., days 13-14 and 27-28, respectively).

[2] = test system: fecal total bile acid (FBA); experiment: Fecal bile acids in dogs, LUM001 daily; format: in vivo, beagle dogs; settings: 14 Days; for Weight-Adjusted Fecal Total Bile Acids Excretion: n=8
Procedure: (§1) Healthy female and male beagle dogs in the age range of 8 to 10 months were used. The animals were acclimated for at least four weeks before dose administration. Four female and four male dogs per dose group (groups 2-5) were given single daily doses of LUM001 at 1, 4, 12 and 30 mg free form/kg for 13 days. Animals in the control group (group 1) were given the same number of empty capsules as the animals of group 5 to treat all dose groups the same.
Fecal samples were collected to determine the fecal total bile acid (FBA) concentration for each animal. Fecal collections were made during the final 72 hours of the study, for three consecutive 24-hour periods between 9:00 am and 10:00 am each day, prior to dosing and feeding. The separate daily collections from each dog were weighed, combined and homogenized with distilled water in a food processor to generate a homogeneous slurry. Homogenate (1.4 g) was extracted in a final concentration ratio of 2:0.6 of 50% (v/v) tertiary butanol/distilled water for 45 minutes in a 37° C. water bath and subjected to centrifugation for 13 minutes at 2000×g. The concentration of bile acids (mmolesgram homogenate) was determined using a 96-well enzymatic assay system. Aliquots of the fecal extracts (20 μl) were added to two sets of triplicate wells in a 96 well assay plate. A standardized sodium taurocholate solution and a standardized fecal extract solution (previously made from pooled samples and characterized for its bile acid concentration) were also analyzed for assay quality control. Aliquots of sodium taurocholate (20 μl), were serially diluted to generate a standard curve containing 30-540 nmoles/well. A 230 μl aliquot of reaction mixture containing 1M hydrazine hydrate, 0.1 M pyrophosphate and 0.46 mg/ml NAD was added to each well. Subsequently, a 50 μl aliquot of either 3a-hydroxysteroid dehydrogenase enzyme (HSD; 0.8 units/ml) or assay buffer (0.1 M sodium pyrophosphate) was added to one each of the two sets of triplicates. Following 60 minutes of incubation at room temperature, the optical density at 340 nm was measured and the mean of each set of triplicate samples was calculated. The difference in optical density±HSD enzyme was used to determine the bile acid concentration (mM) of each sample based on the sodium taurocholate standard curve. The bile acid concentration of the extract (mmolesgram homogenate), the total weight of the fecal homogenate (grams) and the body weight of the dogs (kg) were used to calculate the corresponding FBA concentration in mmoles/kg/day for each animal. All reagents used for the assay were obtained from Sigma Chemical Co., St. Louis, Mo. (HSD—catalog # H-1506; NAD—catalog # N1636; sodium taurocholate—catalog # T-4009). A one-tailed, paired Student's t-test was used to determine the statistical significance of changes in FBA concentration in treated animals compared to pretreatment values and between treatment groups.

[3] = test system: Cholesterol 7-α hydroxylase; experiment: Cholesterol 7-α hydroxylase activity in liver microsomes of treated dogs; format: in vivo, beagle dogs; settings: 14 Days; for Cholesterol 7a-hydroxylase: n=8
Procedure: as §1
At the end of the study, animals were anesthetized, their livers removed and flash frozen and stored at −80 C. Homogenates of three gram liver tissue samples were prepared in 25 ml homogenization buffer [0.1 M potassium phosphate buffer, pH 7.2, containing 0.1 M sucrose, 50 mM KCl, 50 mM NaF, 5 mM ethylene glycol-bis((3-aminoethyl ether)-N,N,N′,N′-tetraacetic acid (EGTA), 1 mM EDTA, 3 mM dithiothreitol (DTT), and 1 mM phenylmethylsulfonyl fluoride (PMSF)]. A microsomal fraction was prepared by centrifugation at 10,000×g for ten minutes. The supernatant was subjected to centrifugation at 105,000×g for two hours. The microsomal fraction was resuspended in a 0.1 M Na tetrapyrophosphate buffer (pH 10), with 50 mM NaF, and 1 mM EDTA, and subjected to centrifugation for one hour at 105,000×g. The microsomal fraction was resuspended in the homogenization buffer, and assayed for protein content by Coomassie Protein Plus Assay reagent.
Liver microsomes (1 mg) or 7-α-hydroxycholesterol standard solutions were preincubated for five minutes at 37° C. in a rocking water bath with 500 μl 5× buffer, 1.7 ml water, and 50 μl 0.1% (w/v) cholesterol as substrate in excess. The 5× buffer consists of 0.42 M Na2HPO4, 0.25 mM NaF, 0.08 M KH2PO4, 5 mM EDTA and 10 mM DTT. The reaction tubes were incubated at 37° C. in a rocking water bath throughout the remainder of the assay protocol, with cessation of rocking only for the period of time needed to add solutions. After the preincubation period, 250 μl of 10 mM NADPH was added and incubated for 5 minutes to allow enzymatic conversion of the cholesterol substrate to 7-α-hydroxycholesterol by endogenous 7-α-hydroxylase. The reaction was stopped by addition of 75 μl of 20% sodium cholate.
After four minutes, 25 μl of 100 μM 20-α-hydroxycholesterol was added to each tube as an internal recovery standard. The tubes were allowed to rock briefly in the water bath to mix, then 40 μl of 25 U/ml cholesterol oxidase was added and the tubes were incubated for ten minutes to convert 7-α-hydroxycholesterol and 20-α-hydroxycholesterol to their ketone forms, 7-α-hydroxycholesten-3-one and 20-α-hydroxycholesten-3-one. After the enzymatic reactions were completed, the ketone products were isolated by four sequential extractions in 20, 10, 10 and 10 ml petroleum ether, respectively. The collected volumes were evaporated to dryness under a flow of nitrogen gas between each extraction step using a heat block set at 50° C. The final dried samples were resuspended in 125 μl mobile phase solution consisting of 70:30 acetonitrile/methanol for analysis by reversed phase HPLC. Chromatography was performed on a 4.6×250 mm Beckman Ultrosphere ODS reverse phase column in mobile phase solution. The analyte, 7-α-hydroxy-4-cholesten-3-one, is quantified by absorption at 254 nm using the internal standard 20-α-hydroxy-4-cholesten-3-one to control for extraction efficiency.

CCCCC1(CCCC)CS(=O)(=O)c2ccc(N(C)C)cc2[C@@H](c2ccc(OCc3ccc(C[N+]45CCN(CC4)CC5)cc3)cc2)[C@H]1O [LUM001]
Body Weight (BW) ([1]; 5 mg/kg/day): 130 g | Body Weight (BW) ([1]; 15 mg/kg/day): 136 g | Body Weight (BW) ([1]; 50 mg/kg/day): 130 g | Weight-Adjusted Fecal Total Bile Acids Excretion, % change from vehicle group ([2]; 1 mg/kg/day): (+63) % | Weight-Adjusted Fecal Total Bile Acids Excretion ([2]; 1 mg/kg/day): 96 ± 9 µmol/day/kg | Weight-Adjusted Fecal Total Bile Acids Excretion, % change from vehicle group ([2]; 4 mg/kg/day): (+137) % | Weight-Adjusted Fecal Total Bile Acids Excretion ([2]; 4 mg/kg/day): 140 ± 6 µmol/day/kg | Weight-Adjusted Fecal Total Bile Acids Excretion, % change from vehicle group ([2]; 12 mg/kg/day): (+158) % | Weight-Adjusted Fecal Total Bile Acids Excretion ([2]; 12 mg/kg/day): 152 ± 13 µmol/day/kg | Weight-Adjusted Fecal Total Bile Acids Excretion, % change from vehicle group ([2]; 30 mg/kg/day): (+183) % | Weight-Adjusted Fecal Total Bile Acids Excretion ([2]; 30 mg/kg/day): 167 ± 15 µmol/day/kg | Cholesterol 7a-hydroxylase, % change from vehicle group ([3]; 1 mg/kg/day): (+28) % | Cholesterol 7a-hydroxylase ([3]; 1 mg/kg/day): 114 ± 18 pmol/mg/min | Cholesterol 7a-hydroxylase, % change from vehicle group ([3]; 4 mg/kg/day): (+101) % | Cholesterol 7a-hydroxylase ([3]; 4 mg/kg/day): 179 ± 22 pmol/mg/min | Cholesterol 7a-hydroxylase, % change from vehicle group ([3]; 12 mg/kg/day): (+219) % | Cholesterol 7a-hydroxylase ([3]; 12 mg/kg/day): 284 ± 41 pmol/mg/min | Cholesterol 7a-hydroxylase, % change from vehicle group ([3]; 30 mg/kg/day): (+378) % | Cholesterol 7a-hydroxylase ([3]; 30 mg/kg/day): 425 ± 58 pmol/mg/min
